Patent US6703409B2, “2′-Halo-3′,5′-dialkoxyphen-1′-yl-imino-2-imidazolidine and the use thereof as a drug” (Boehringer Ingelheim Pharma GmbH & Co KG, priority 2002, dated 2004)

What was measured:
CYP2D6 = CYP2D6 (Homo sapiens, UniProt P10635); test: Metabolism by the enzyme CYP2D6; format: in vitro ADME; settings: CYP2D6, after 30 minutes
Protocol: To determine the metabolism the enzyme CYP2D6 was reacted with 2′-Chloro-3′,5′-dimethoxyphen-1′-yl-imino-2-imidazolidine. After 30 minutes 2.4% of the substance had been broken down by the enzyme.

[1] = test system: isolated dog femoral artery; test: Maximum contraction in the isolated dog femoral artery compared with noradrenaline; settings: as percentage of contraction compared with noradrenaline
Text: (§1) The maximum contraction in the isolated dog femoral artery and the human urethra are given as percentages of contraction compared with noradrenaline.

human urethra = test: Maximum contraction in the human urethra compared with noradrenaline; settings: as percentage of contraction compared with noradrenaline
Text: as §1

Sequence of CYP2D6 (P10635 whole entry, species assumed): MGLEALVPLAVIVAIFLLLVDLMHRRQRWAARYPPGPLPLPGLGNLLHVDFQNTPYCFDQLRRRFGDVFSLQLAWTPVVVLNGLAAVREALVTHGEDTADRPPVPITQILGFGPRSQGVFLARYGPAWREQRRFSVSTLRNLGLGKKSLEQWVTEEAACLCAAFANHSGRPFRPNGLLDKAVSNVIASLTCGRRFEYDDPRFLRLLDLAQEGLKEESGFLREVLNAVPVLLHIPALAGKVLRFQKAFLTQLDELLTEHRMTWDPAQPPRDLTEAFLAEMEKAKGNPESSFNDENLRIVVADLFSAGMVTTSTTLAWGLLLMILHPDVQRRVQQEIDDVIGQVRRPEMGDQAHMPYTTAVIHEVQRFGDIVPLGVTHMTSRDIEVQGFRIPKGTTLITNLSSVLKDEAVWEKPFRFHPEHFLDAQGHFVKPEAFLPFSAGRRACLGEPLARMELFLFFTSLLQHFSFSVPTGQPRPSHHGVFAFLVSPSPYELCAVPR

SMILES: COc1cc(N=C2NCCN2)c(Cl)c(OC)c1 [2′-chloro-3′,5′-dimethoxyphen-1′-yl-imino-2-imidazolidine]
- substance broken down by the enzyme (CYP2D6): 2.4%
- activity in the dog [1]: 65%
- activity on human urethra (human urethra): 66.2%
